These results are taken from PMC11022737, “Targeting GRP75 with a Chlorpromazine Derivative Inhibits Endometrial Cancer Progression Through GRP75–IP3R‐Ca^2+‐AMPK Axis” (Advanced Science, 2024).

Data set [1] has as its system endometrial cancer organoid (ECO). As to the kind of experiment: anti-proliferation in endometrial cancer organoid (ECO) model. In kind it is cell-based. Conditions: Homo sapiens, n = 3, mean ± SD. The protocol:
ECO cultures were established as described previously.^[ [50] ^] Biopsies were cut into small pieces and extensively rinsed in phosphate‐buffered saline (PBS; HyClone, SH30256.01) containing 2% penicillin–streptomycin solution (Thermo Fisher Scientific, 10 010 023). Tissues were incubated in TrypLE (1x; Thermo Fisher Scientific, 12 604 013) supplemented with rock inhibitor for 20 min and then mechanically sheared to obtain a cell suspension. Digestion was stopped by dilution with equal amounts of DMEM/F12 and centrifuged at 1300 rpm for 5 min at 4 °C. The pellet was resuspended in Matrigel (Corning, 356 231, Corning, NY, USA), and 30 µL droplets were deposited in pre‐warmed 24‐well plates. ECOs were cultured as described previously.^[ [51] ^] For passages (performed every 10–20 d), organoids were recovered via liquefaction of the Matrigel drops with ice‐cold DMEM/F12 to ensure maximum organoid collection. Subsequently, ECOs were dissociated by repeated pipetting using TrypLE (in DMEM/F12 containing rock inhibitor), and the mixture was centrifuged at 1300 rpm. […]
EC cells were seeded into 96‐well plates at a concentration of 8 × 10^3 cells well^−1 in a 100 µL volume and cultured overnight. […] Absorbance at 450 nm was measured using a microplate reader (BioTek Synergy H1, Agilent Technologies, Santa Clara, CA, USA).

Data set [2] can be described thus: plasma protein binding using equilibrium dialysis. In kind it is in vitro ADME.
Description: Plasma protein binding using equilibrium dialysis: A 96-well equilibrium dialysis device and HTD 96 a/b regenerated cellulose membrane strips with a molecular mass cutoff of 12–14 kDa were obtained from HTDialysis LLC (Gales Ferry, CT). The dialysis device was assembled following the manufacturer's instructions.
Data set [3] in a line: pharmacokinetic assay in SD rats (PO, IP, IV). In kind it is in vivo. The settings on record: male, rat, plasma. How it is done:
Three male SD rats (208–259 g, 6–8 weeks) per group were purchased from JH Laboratory Animal Co. LTD. All rats were raised under controlled temperature and humidity conditions and had free access to food and water. […] Each rat was injected with a combination solution at doses of 2, 10, and 5 mg kg^−1 for IV, PO, and IP, respectively. Blood samples collected in anticoagulant (K2EDTA)‐containing tubes at 0.25, 0.5, 1, 2, 4, 8, and 24 h after injection were centrifuged at 2000 × g at 4 °C for 5 min to obtain plasma. LC‐MS/MS analysis of samples was carried out using an ACQUITY UPLC HSS T3 1.8 µm column. The mobile phase was a mixture of phase A (0.1% formic acid in water) and phase B (0.1% formic acid in acetonitrile), which ran in gradient mode at a flow rate of 0.6 mL min^−1 at 60 °C. Mass spectra were obtained on an API6500 triple quadrupole equipped with an ESI source. Glipizide was used as an internal standard. The plasma concentrations of the compounds were analyzed, and the pharmacokinetic parameters were calculated via WinNonlin.

In data set [4] the test system is ISK cells xenograft tumors. Description: ISK tumor xenograft in nude mice. Format: in vivo, BALB/c nude mice. The source says:
All animal experiments were approved by the Committee on the Ethics of Animal Experiments of Shanghai Jiao Tong University, China (GKLW 2018–40). Female BALB/c nude mice (at least 5 weeks old) were procured from a commercial supplier (JieSiJie, Shanghai, China) through the Department of Laboratory Animal Science at Shanghai Jiaotong University School of Medicine. Mice were maintained under standard conditions and cared for according to the institutional guidelines for animal care. EC cells resuspended in PBS were mixed with Matrigel (BD Biosciences) in equal volume and then subcutaneously injected into the armpits of the nude mice. […] The dose of the compound injected into the mice was slightly adjusted following the methodology described in the previous study.^[ [7] ^] Every 2 d, the length (L) and width (W) of each tumor were measured twice using an external Vernier caliper for automatic reading, where the larger of the two measurements was defined as L and the smaller as W. The tumor volume was calculated using Equation 1, as follows: (1) V=0.52×L×W^2
HSP‐70 ELISA kits were purchased from YuBo Biology. […] Equal amounts of diluted protein supernatant were used, and the assay was conducted according to the manufacturer's instructions. The obtained absorbance values for protein levels were then transferred to in‐house data analysis software developed using the Windows Microsoft Excel platform to calculate the standard deviations for each group, and the average absorbance for each group was compared to the standardized controls. Each test group for each of the proteins of interest consisted of eight replicates. Assay‐specific controls were run with each plate to ensure optimal accuracy of the results.

For a further data set, the system named is EC cells (ISK). As to the kind of experiment: MAM integrity and mitochondrial Ca2+ (TEM, confocal imaging) in EC cells. Format: cell-based, human. The protocol:
EC cells were fixed with 2.5% glutaraldehyde in sodium cacodylate buffer (0.1 mol L^−1, pH 7.2) at 4 °C overnight and post‐fixed for 1 h in 1% osmium tetroxide. Samples were stained for 1 h with 1% uranyl acetate in water before dehydration and embedding in the TAAB resin. Images were obtained using a transmission electron microscope.
Co‐localization analysis of the ER and mitochondria was conducted as previously described.^[ [64], [65] ^] EC cells grown on glass slides were loaded with Mito‐Tracker Red (0.3 µmol L^−1) and ER‐Tracker Green (1 µmol L^−1) at 37 °C for 30 min. Images were captured using a confocal microscope equipped with a 100× oil immersion objective (excitation at 488 and 594 nm, emission at 505–530 and >560 nm, respectively). Co‐localization of the ER and mitochondria was quantified as Manders’ co‐localization coefficient (MCC) using ImageJ software with a JACoP plugin. MCCs were calculated according to the fraction of mitochondrial pixels in contact with the ER (with a higher value representing more co‐localization). The co‐localization of Rhod‐2 (red fluorescent signal, 4 µmol L^−1) with Mito‐Tracker Green (0.3 µmol L^−1) in the live cells was performed as described above.

Data set [5] has as its system ISK and KLE cells. As to the kind of experiment: ATP production and α-KGDH activity in EC cells. Format: cell-based, human. Conditions: 10 µmol L−1. The protocol:
The intracellular ATP levels were then checked using an enhanced ATP kit (Beyotime Biotechnology, Jiangsu, China), in accordance with the manufacturer's instructions. The entire cell population, including any floating cells, was collected, lysed, and boiled to release the ATP for the assay, and the results were compared with those from the DMSO group (%).
Intracellular α‐KGDH activity levels were measured using an α‐KGDH activity assay kit (Solarbio, Beijing, China) according to the manufacturer's instructions. Briefly, the entire cell population, including any floating cells, was collected, milled, and the absorbance measured. The α‐KGDH activity was then determined using Equation 2 as follows: (2) α−KGDH=U/10^4cell=4.962×ΔAdetermination−ΔAblank

Data set [6] has as its system ISK and KLE cells. Description: Seahorse glycolytic rate assay (ECAR). Format: cell-based, human. The settings on record: 10 µM. How it is done:
The ECAR and OCR were measured using the Seahorse XF Glycolysis Stress Test Kit or Seahorse XF Cell Mito Stress Test Kit on the Seahorse XF 96 Extracellular Flux Analyzer (Seahorse Bioscience, North Billerica, MA, USA), according to the manufacturer's introductions. […] Glucose, oligomycin, and 2‐deoxy‐glucose were used to determine the ECAR values, whereas oligomycin, carbonyl cyanide‐p‐trifluoromethoxyphenylhydrazone, and rotenone were used to measure the OCR.

The subject of data set [7] is AMPK signaling in ISK and KLE cells. As to the kind of experiment: Western blotting of p-AMPK and BIM. In kind it is cell-based, human. From the text: EC cells were lysed in RIPA buffer (Epizyme, PC102, Ipsen Biopharmaceuticals, Cambridge, MA, USA) supplemented with a protease inhibitor cocktail. Samples were then quantified using a BCA kit (Epizyme, ZJ101), resolved by SDS‐PAGE, and blotted with primary antibodies and corresponding horseradish peroxidase‐conjugated secondary antibodies. The primary antibodies used included anti‐AMPK (1:1000 dilution), anti‐p‐AMPK (1:1000 dilution), anti‐BIM (1:1000 dilution), and anti‐GRP75 (1:1000 dilution) from Cell Signaling Technology (Beverly, MA, USA) and anti‐GAPDH (1:1500 dilution) from Yeason.

Details of data set [8]: method as in PMID 35868106. Conditions: cited from earlier work.
The next data set addresses T1, GRP75 (Homo sapiens, UniProt P38646).
T1 construct: purchased Zoonbio Biotechnology Co., Ltd. (Nanjing, China); host or cells: E. coli
As to the kind of experiment: microscale thermophoresis (MST) binding assay. Conditions: His-tagged recombinant GRP75 50 nmol L−1, n = 3; read-out: K d, binding to GRP75 (MST). How it is done:
Purified GRP75 protein was obtained by Zoonbio Biotechnology Co., Ltd. (Nanjing, China). Recombinant His‐tagged GRP75 protein was labeled with RED‐tris‐NTA second generation dye solution (MO‐L018, NanoTemper Technologies), according to the manufacturer's instructions. […] All samples were diluted in 1× PBST and contained the same amount of DMSO. The K d was determined in MO. Control using the K d fit.

Another data set can be described thus: water solubility. In kind it is physicochemical.
Setting [9] is: IP 5 mg kg−1, read-out: AUC 0–24 h.
Setting [10] is: IP 5 mg kg−1, read-out: AUC 24 h−∞.
[11] abbreviates: IV 2 mg kg−1, read-out: AUC 0–24 h.
Setting [12] is: IV 2 mg kg−1, read-out: AUC 24 h−∞.
The mark [13] stands for this setting: PO 10 mg kg−1, read-out: AUC 0–24 h.
The mark [14] stands for this setting: PO 10 mg kg−1, read-out: F (oral bioavailability).

Where two headings read alike, the source gives them in different places.

T1 sequence (P38646 47-679): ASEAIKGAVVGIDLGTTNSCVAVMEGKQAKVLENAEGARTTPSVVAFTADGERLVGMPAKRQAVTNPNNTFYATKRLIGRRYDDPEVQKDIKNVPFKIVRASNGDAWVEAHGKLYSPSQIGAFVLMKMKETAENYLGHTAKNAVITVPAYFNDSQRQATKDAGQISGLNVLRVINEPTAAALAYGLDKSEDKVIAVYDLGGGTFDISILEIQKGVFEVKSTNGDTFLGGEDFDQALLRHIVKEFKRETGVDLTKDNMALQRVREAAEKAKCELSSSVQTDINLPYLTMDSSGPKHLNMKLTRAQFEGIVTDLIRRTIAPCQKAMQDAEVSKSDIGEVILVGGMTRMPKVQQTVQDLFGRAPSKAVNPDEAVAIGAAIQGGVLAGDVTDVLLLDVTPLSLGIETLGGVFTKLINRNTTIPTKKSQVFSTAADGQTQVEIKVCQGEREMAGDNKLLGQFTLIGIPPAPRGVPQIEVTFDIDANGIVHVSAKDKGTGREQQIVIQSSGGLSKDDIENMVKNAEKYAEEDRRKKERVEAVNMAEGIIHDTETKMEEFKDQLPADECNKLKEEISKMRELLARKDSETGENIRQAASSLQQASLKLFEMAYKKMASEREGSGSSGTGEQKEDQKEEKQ

Take `CN(C)CCCN1c2ccccc2Sc2ccc(Cl)cc21` [CPZ, chlorpromazine]: the half-maximal inhibitory concentration (IC50) in data set [1] was 58.2 ± 7.62 µM. In data set [2], the “% Bound (plasma protein binding rate)” value was 98.44% and the fraction unbound turned out to be 0.0156.

Consider `CN1CCN(CCCCCN2c3cc(Cl)ccc3Sc3cccnc32)CC1` [JX57], for which the “%Unbound” value in data set [2] is listed as 0.84%. Further, the maximum concentration (Cmax) in data set [3] (IP 5 mg kg−1) worked out at 3.04 ± 1.12 ng/mL; in [3] (PO 10 mg kg−1), 11.3 ± 4.57 ng/mL. Further, the time of peak concentration (Tmax) amounted to 0.33 ± 0.14 h in [3] (IP 5 mg kg−1) and 0.41 ± 0.14 h in data set [3] (PO 10 mg kg−1). In addition, the half-life is 3.06 ± 1.03 h in data set [3] (IP 5 mg kg−1), 2.72 ± 0.9 h in [3] (IV 2 mg kg−1) and 4.03 ± 0.88 h in data set [3] (PO 10 mg kg−1). For the same molecule, the AUC(0-t) in data set [3] (setting [9]) came out at 9.01 ± 7.03 ng·h/mL; in [3] (setting [11]), 8.12 ± 4.13 ng·h/mL; in [3] (setting [13]), 41.5 ± 15.7 ng·h/mL. Besides, the AUC(0-inf) in data set [3] (setting [10]) was determined as 14.2 ± 8.39 ng·h/mL; in data set [3] (setting [12]), 13.9 ± 5.43 ng·h/mL; in data set [3] (PO 10 mg kg−1, read-out: AUC 24 h−∞), 55.7 ± 24.3 ng·h/mL. In addition, the bioavailability in data set [3] (IP 5 mg kg−1, read-out: F) was 44.4 ± 34.6%; in [3] (setting [14]) it was 94.3 ± 46.9%. The clearance in [3] (IV 2 mg kg−1) is 2650 mL/min/kg. Also, in [4] (5 mg kg−1, n = 8), the “expression of GRP75 in xenograft tumors with ISK cells (ELISA)” value was “reduced”. Also, in data set [4] (GRP75-deficient ISK cells in nude mice, 5 mg kg−1 i.p. daily, n = 6), the “effects on GRP75-knockdown ISK tumor versus vehicle group” value is on record as “not significantly different”. In addition, the “anticancer effect in vivo on addition of the AMPK inhibitor compound C” value in data set [4] (JX57 5 mg kg−1 plus compound C 0.2 mg kg−1, n = 6) is given as “partially abolished”. The “ER–mitochondrial distance (TEM)” value with EC cells (ISK) (EC cells (ISK), 10 µmol L−1) was “significantly expanded”. For the same molecule, the “[Ca2+]m levels” value in the data set on EC cells (ISK) (EC cells, 10 µmol L−1, confocal Rhod-2/Mito-Tracker) was “decreased”. The “cellular ATP levels” value in the data set with ISK and KLE cells [5] was “reduced”. In addition, the “α‐ketoglutarate activity” value in the data set on ISK and KLE cells [5] was “reduced”. Besides, the “glycolysis rate and glycolytic capacity (ECAR)” value in the data set on ISK and KLE cells [6] is on record as “markedly reduced”. Further, the “p‐AMPK expression and BIM expression” value in [7] is “increased”. Further, the extrapyramidal side effects result in [8] is on record as “minor”.

`Clc1ccc2c(c1)N(CCCCCN1CCC3(CCCCC3)CC1)c1ncccc1S2` [JX66]: the concentration for half-maximal inhibition (IC50) in data set [1] is 6.39 ± 0.87 µM. For the same molecule, the Cmax amounted to 10 ± 1.49 ng/mL in [3] (IP 5 mg kg−1) and 3.8 ± 1.29 ng/mL in data set [3] (PO 10 mg kg−1). Also, the time to peak (Tmax) in data set [3] (IP 5 mg kg−1) was found to be 1.67 ± 0.57 h; in [3] (PO 10 mg kg−1), 5.5 ± 4.33 h. In addition, the half-life in data set [3] (IP 5 mg kg−1) was 10.1 ± 1.38 h; in data set [3] (IV 2 mg kg−1), 5.1 ± 1.69 h. In addition, the AUC(0-t) came out at 140 ± 35.3 ng·h/mL in data set [3] (setting [9]), 144 ± 75.9 ng·h/mL in data set [3] (setting [11]) and 16 ± 2.65 ng·h/mL in [3] (setting [13]). Moreover, the values for the AUC(0-inf) in data set [3] (setting [10]) and in data set [3] (setting [12]) were 170 ± 37.4 ng·h/mL and 153 ± 75.9 ng·h/mL, respectively. The bioavailability in [3] (IP 5 mg kg−1, read-out: F) was determined as 42.5 ± 13%; in data set [3] (setting [14]), 2.23 ± 0.37%. The clearance in data set [3] (IV 2 mg kg−1) was 265 mL/min/kg. In addition, at GRP75, the Kd came out at 37.6 µM. In addition, the water solubility entry in “water solubility” was “poor”. Besides, the extrapyramidal side effects entry in data set [8] is on record as “minor”.
